This assay concerns rats with fluid percussion injury (FPI). Briefly: Traumatic brain injury (fluid percussion injury), neurobehavioral score and MRI. The format is in vivo. The settings on record: moderate FPI; 1 μg/per rat into subdural space 1 h after TBI; days 1-14; versus CSF. The protocol:
FIGS. 23A and 23C: delivery via an intravenous injection; FIG. 23B: delivery via subdural injection. SD rats were subjected to a moderate fluid percussion injury (FPI) model and treated (1 μg/per rat) with 32- and 34 carbon elovanoids as the methyl ester (ME) or sodium salt (Na) (ELV-N32-ME, ELV-N34-ME, ELV-32-Na-d2, ELV-N34-Alkyne) or of vehicle (cerebral spinal fluid; CSF). Treatments were delivered into subdural space at 1 h after TBI. Animals received neurobehavioral examination (normal=0, maximal deficit=12) on days 1, 2, 3, 7 or 14. […] ELV-N34-Alkyne (IV, 300 μg/per animal). All animals received neurobehavioral examination (normal=0, maximal deficit=12) on days 1, 2, 3, 7 or 14.
FIG. 34 is a schematic representation of an experimental protocol for to study the effects of traumatic brain injury through one exemplary model. Briefly, moderate TBI was administered via fluid percussion injury (FPI) to the right parieto-occipital area in male Sprague Dawley rats followed by treatment with elovanoids, behavioral testing, and ex vivo MRI histopathology.
Briefly, Sprague-Dawley rats (280-350 g) were subjected to 4.8 mm craniotomy overlying the right parietal cortex (3.8 mm posterior to bregma and 2.5 mm lateral to midline) was performed 24 hours before fluid percussion injury. A plastic adaptor with a plug was positioned over the craniotomy. […]

`CC/C=C\C[C@H](O)\C=C/C=C/C=C/[C@H](O)C/C=C\C/C=C\CCCCCCCCCCCCC(=O)OC` [ELV-N32-Me, methyl (14Z,17Z,20R,21E,23E,25Z,27S,29Z)-20,27-dihydroxydotriaconta-14,17,21,23,25,29-hexaenoate]: the “neurologic score (normal=0, maximal deficit=12)” value is on record as “improved neurologic score”.
For `CC/C=C\C[C@H](O)\C=C/C=C/C=C/[C@H](O)C/C=C\C/C=C\CCCCCCCCCCCCCCC(=O)OC` [ELV-N34-Me, methyl (16Z,19Z,22R,23E,25E,27Z,29S,31Z)-22,29-dihydroxytetratriaconta-16,19,23,25,27,31-hexaenoate], the “neurologic score (normal=0, maximal deficit=12)” value is recorded as “improved neurologic score”.

The record behind these values is US11684599B2, “Very-long-chain polyunsaturated fatty acids, elovanoid hydroxylated derivatives, and methods of use” (Board of Supervisors of Louisiana State University and …, priority 2017, dated 2023).
